Measured values taken from the CheMixHub viscosity set.

Experiment: xn = mol fraction of the nth substance listed

COC(=O)CC(C)=O + CO
viscosity [mPa·s], 101.3 kPa
Conditions	x1 = 0.1017	x1 = 0.1887	x1 = 0.3013	x1 = 0.4048	x1 = 0.5038	x1 = 0.6056	x1 = 0.7015	x1 = 0.8024	x1 = 0.8994
298.15 K	0.599	0.662	0.757	0.858	0.954	1.064	1.163	1.288	1.413
303.15 K	0.563	0.618	0.704	0.793	0.879	0.978	1.066	1.176	1.288
308.15 K	0.525	0.578	0.657	0.737	0.815	0.902	0.984	1.082	1.18

COC(=O)CC(C)=O + COC(=O)c1ccccc1
viscosity [mPa·s], 101.33 kPa
Conditions	x1 = 0.0981	x1 = 0.1935	x1 = 0.2966	x1 = 0.4001	x1 = 0.4987	x1 = 0.5986	x1 = 0.6984	x1 = 0.798	x1 = 0.8977
298.15 K	1.775	1.732	1.703	1.667	1.639	1.615	1.598	1.583	1.569
303.15 K	1.609	1.573	1.548	1.515	1.49	1.469	1.453	1.44	1.429
308.15 K	1.467	1.435	1.413	1.382	1.362	1.343	1.329	1.316	1.306

COC(=O)CC(C)=O + COC(C)=O
viscosity [mPa·s], 101.33 kPa
Conditions	x1 = 0.0996	x1 = 0.1998	x1 = 0.3009	x1 = 0.397	x1 = 0.4973	x1 = 0.5975	x1 = 0.6969	x1 = 0.7993	x1 = 0.9006
298.15 K	0.448	0.52	0.596	0.688	0.798	0.915	1.044	1.202	1.373
303.15 K	0.424	0.489	0.564	0.643	0.744	0.843	0.963	1.104	1.257
308.15 K	0.403	0.463	0.533	0.603	0.696	0.786	0.913	1.024	1.155

COc1ccc(C=O)cc1 + COCCO
viscosity [mPa·s], 101 kPa
Conditions	x1 = 0.0753	x1 = 0.1549	x1 = 0.2391	x1 = 0.3283	x1 = 0.4231	x1 = 0.5238	x1 = 0.6311	x1 = 0.7457	x1 = 0.8684
303.15 K	1.502	1.518	1.567	1.656	1.793	1.984	2.242	2.577	3.006
308.15 K	1.463	1.488	1.537	1.614	1.723	1.87	2.062	2.308	2.617
313.15 K	1.214	1.258	1.32	1.404	1.513	1.651	1.824	2.037	2.298
318.15 K	1.129	1.175	1.236	1.312	1.408	1.525	1.669	1.843	2.054

COc1ccc(C=O)cc1 + Cc1cc(C)cc(C)c1
viscosity [mPa·s], 101 kPa
Conditions	x1 = 0.1142	x1 = 0.2248	x1 = 0.3321	x1 = 0.4361	x1 = 0.537	x1 = 0.635	x1 = 0.7302	x1 = 0.8227	x1 = 0.9126
303.15 K	0.686	0.766	0.825	1.044	1.283	1.581	1.77	2.826	2.963
308.15 K	0.645	0.713	0.7707	0.96	1.148	1.395	1.582	2.452	2.665
313.15 K	0.438	0.487	0.547	0.676	0.825	1	1.094	1.859	1.969
318.15 K	0.392	0.435	0.5	0.614	0.733	0.9	1	1.517	1.713

COc1ccc(C=O)cc1 + Cc1ccc(O)cc1
Conditions	viscosity [mPa·s]
308.15 K, 101 kPa, x1 = 0.8868	3.965

COc1ccc(C=O)cc1 + Cc1cccc(O)c1
Conditions	viscosity [mPa·s]
318.15 K, 101 kPa, x1 = 0.4656	4.085
